Biological target: human CXCR3-A receptor (Homo sapiens (Human), UniProt P49682)
Experiment: 125I-CXCL10 competition radioligand binding assay;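 further: One-hour incubation of membranes with tracer, bound radioligand separated by glass fibre filtration, IC50 derived from four-parameter nonlinear fit of competition curves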
Details: displacement of 125I-CXCL10 from membranes of CHO cells expressing human recombinant CXCR3-A

Sequence of human CXCR3-A receptor (P49682 whole entry): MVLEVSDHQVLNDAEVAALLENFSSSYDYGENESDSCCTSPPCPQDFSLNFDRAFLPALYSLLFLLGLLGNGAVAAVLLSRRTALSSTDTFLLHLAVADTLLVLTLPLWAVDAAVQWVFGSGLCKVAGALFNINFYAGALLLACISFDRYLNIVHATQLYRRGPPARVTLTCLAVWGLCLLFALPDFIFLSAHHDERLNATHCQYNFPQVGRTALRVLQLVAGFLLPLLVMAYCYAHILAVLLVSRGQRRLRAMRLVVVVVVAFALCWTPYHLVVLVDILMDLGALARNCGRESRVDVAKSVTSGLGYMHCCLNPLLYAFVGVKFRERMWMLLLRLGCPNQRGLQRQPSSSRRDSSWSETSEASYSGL

Row | IC50 [nM] | Compound
1 | 177 | CCCN(Cc1ccc(CCCN2C(=O)CCC2=O)c(OC)c1)C(CC(=O)O)c1ccc(Cl)cc1 (stereo not shown) [Example 133, 3-(4-Chloro-phenyl)-3-({4-[3-(2,5-dioxo-pyrrolidin-1-yl)-propyl]-3-methoxy-benzyl}-propyl-amino)-propionic acid]
2 | 296 | COc1cc(CN(CC(C)C)C(CC(=O)O)c2ccc(Cl)cc2)ccc1CCCN1C(=O)CCC1=O (stereo not shown) [Example 134, 3-(4-Chloro-phenyl)-3-({4-[3-(2,5-dioxo-pyrrolidin-1-yl)-propyl]-3-methoxy-benzyl}-isobutyl-amino)-propionic acid]
3 | 116 | CCCCN(Cc1ccc(CCCN2C(=O)CCC2=O)c(OC)c1)C(CC(=O)O)c1ccc(Cl)cc1 (stereo not shown) [Example 135, 3-(Butyl-{4-[3-(2,5-dioxo-pyrrolidin-1-yl)-propyl]-3-methoxy-benzyl}-amino)-3-(4-chloro-phenyl)-propionic acid]
4 | 240 | Cc1cc(CN(CC(C)C)C(CC(=O)O)c2ccc(Cl)cc2)ccc1CCCN1C(=O)CCC1=O (stereo not shown) [Example 137, 3-(4-Chloro-phenyl)-3-({4-[3-(2,5-dioxo-pyrrolidin-1-yl)-propyl]-3-methyl-benzyl}-isobutyl-amino)-propionic acid]
5 | 190 | COc1cc(CN(C2CCC2)C(CC(=O)O)c2ccc(Cl)cc2)ccc1CCCN1C(=O)CCC1=O (stereo not shown) [Example 138, 3-(4-Chloro-phenyl)-3-(cyclobutyl-{4-[3-(2,5-dioxo-pyrrolidin-1-yl)-propyl]-3-methoxy-benzyl}-amino)-propionic acid]
6 | 54 | COc1cc(CN(CC2CCCC2)C(CC(=O)O)c2ccc3c(c2)CCO3)ccc1CCCN1C(=O)CCC1=O (stereo not shown) [Example 139, 3-(Cyclopentylmethyl-{4-[3-(2,5-dioxo-pyrrolidin-1-yl)-propyl]-3-methoxy-benzyl}-amino)-3-(2,3-dihydro-benzofuran-5-yl)-propionic acid]
7 | 51 | CCCCN(Cc1ccc(CCCN2C(=O)CCC2=O)c(OC)c1)C(CC(=O)O)c1ccc2c(c1)CCO2 (stereo not shown) [Example 140, 3-(Butyl-{4-[3-(2,5-dioxo-pyrrolidin-1-yl)-propyl]-3-methoxy-benzyl}-amino)-3-(2,3-dihydro-benzofuran-5-yl)-propionic acid]
8 | 43 | COc1cc(CN(CC(C)C)C(CC(=O)O)c2ccc3c(c2)CCO3)ccc1CCCN1C(=O)CCC1=O (stereo not shown) [Example 141, 3-(2,3-Dihydro-benzofuran-5-yl)-3-({4-[3-(2,5-dioxo-pyrrolidin-1-yl)-propyl]-3-methoxy-benzyl}-isobutyl-amino)-propionic acid]
9 | 211 | Cc1cc(CN(CC2CC2)C(CC(=O)O)c2ccc3c(c2)CCO3)ccc1CCCN1C(=O)CCC1=O (stereo not shown) [Example 142, 3-(Cyclopropylmethyl-{4-[3-(2,5-dioxo-pyrrolidin-1-yl)-propyl]-3-methyl-benzyl}-amino)-3-(2,3-dihydro-benzofuran-5-yl)-propionic acid]
10 | 211 | Cc1cc(CN(CC2CCCCC2)C(CC(=O)O)c2ccc3c(c2)CCO3)ccc1CCCN1C(=O)CCC1=O (stereo not shown) [Example 143, 3-(Cyclohexylmethyl-{4-[3-(2,5-dioxo-pyrrolidin-1-yl)-propyl]-3-methyl-benzyl}-amino)-3-(2,3-dihydro-benzofuran-5-yl)-propionic acid]
11 | 38 | CCCCN(Cc1ccc(OCCN2C(=O)CCC2=O)c(C)c1)C(CC(=O)O)c1ccc2c(c1)CCO2 (stereo not shown) [Example 145, 3-(Butyl-{4-[2-(2,5-dioxo-pyrrolidin-1-yl)-ethoxy]-3-methyl-benzyl}-amino)-3-(2,3-dihydro-benzofuran-5-yl)-propionic acid]
12 | 56 | COc1cc(CN(CC2CCCC2)C(CC(=O)O)c2ccc3c(c2)CCO3)ccc1OCCN1C(=O)CCC1=O (stereo not shown) [Example 146, 3-(Cyclopentylmethyl-{4-[2-(2,5-dioxo-pyrrolidin-1-yl)-ethoxy]-3-methoxy-benzyl}-amino)-3-(2,3-dihydro-benzofuran-5-yl)-propionic acid]
13 | 46 | Cc1cc(CN(CC2CCCC2)C(CC(=O)O)c2ccc3c(c2)CCO3)ccc1OCCN1C(=O)CCC1=O (stereo not shown) [Example 147, 3-(Cyclopentylmethyl-{4-[2-(2,5-dioxo-pyrrolidin-1-yl)-ethoxy]-3-methyl-benzyl}-amino)-3-(2,3-dihydro-benzofuran-5-yl)-propionic acid]
14 | 28 | COc1cc(CN(CC2CCCCC2)C(CC(=O)O)c2ccc3c(c2)CCO3)ccc1OCCN1C(=O)CCC1=O (stereo not shown) [Example 148, 3-(Cyclohexylmethyl-{4-[2-(2,5-dioxo-pyrrolidin-1-yl)-ethoxy]-3-methoxy-benzyl}-amino)-3-(2,3-dihydro-benzofuran-5-yl)-propionic acid]
15 | 72 | Cc1cc(CN(CC2CCCCC2)C(CC(=O)O)c2ccc3c(c2)CCO3)ccc1OCCN1C(=O)CCC1=O (stereo not shown) [Example 149, 3-(Cyclohexylmethyl-{4-[2-(2,5-dioxo-pyrrolidin-1-yl)-ethoxy]-3-methyl-benzyl}-amino)-3-(2,3-dihydro-benzofuran-5-yl)-propionic acid]
16 | 140 | CCCCN(Cc1ccc(OCCN2C(=O)CCC2=O)c(OC)c1)C(CC(=O)O)c1ccc(Cl)cc1Cl (stereo not shown) [Example 150, 3-(Butyl-{4-[2-(2,5-dioxo-pyrrolidin-1-yl)-ethoxy]-3-methoxy-benzyl}-amino)-3-(2,4-dichloro-phenyl)-propionic acid]
17 | 754 | COc1cc(CN(C)C(c2ccc(Cl)cc2)C(C)C(=O)O)ccc1OCCn1c(=O)ccn(C)c1=O (stereo not shown) [Example 152, 3-(4-Chloro-phenyl)-3-({3-methoxy-4-[2-(3-methyl-2,6-dioxo-3,6-dihydro-2H-pyrimidin-1-yl)-ethoxy]-benzyl}-methyl-amino)-2-methyl-propionic acid]
18 | 635 | CCN(Cc1ccc(OCCn2c(=O)ccn(C)c2=O)c(OC)c1)C(c1ccc(Cl)cc1)C(C)C(=O)O (stereo not shown) [Example 153, 3-(4-Chloro-phenyl)-3-(ethyl-{3-methoxy-4-[2-(3-methyl-2,6-dioxo-3,6-dihydro-2H-pyrimidin-1-yl)-ethoxy]-benzyl}-amino)-2-methyl-propionic acid]
19 | 58 | CCN(Cc1ccc(OCCn2c(=O)ccn(C)c2=O)c(C)c1)C(CC(=O)O)c1ccc2c(c1)CCO2 (stereo not shown) [Example 154, 3-(2,3-Dihydro-benzofuran-5-yl)-3-(ethyl-{3-methyl-4-[2-(3-methyl-2,6-dioxo-3,6-dihydro-2H-pyrimidin-1-yl)-ethoxy]-benzyl}-amino)-propionic acid]
20 | 529 | CCCN(Cc1ccc(OCCn2c(=O)ccn(C)c2=O)c(C)c1)C(CC(=O)O)c1ccc2c(c1)CCO2 (stereo not shown) [Example 155, 3-(2,3-Dihydro-benzofuran-5-yl)-3-({3-methyl-4-[2-(3-methyl-2,6-dioxo-3,6-dihydro-2H-pyrimidin-1-yl)-ethoxy]-benzyl}-propyl-amino)-propionic acid]
21 | 120 | COc1cc(CN(CC2CC2)C(CC(=O)O)c2ccc(Cl)cc2Cl)ccc1OCCn1c(=O)ccn(C)c1=O (stereo not shown) [Example 156, 3-(Cyclopropylmethyl-{3-methoxy-4-[2-(3-methyl-2,6-dioxo-3,6-dihydro-2H-pyrimidin-1-yl)-ethoxy]-benzyl}-amino)-3-(2,4-dichloro-phenyl)-propionic acid]
22 | 75 | Cc1cc(CN(CC(C)C)C(CC(=O)O)c2ccc3c(c2)CCO3)ccc1OCCn1c(=O)ccn(C)c1=O (stereo not shown) [Example 158, 3-(2,3-Dihydro-benzofuran-5-yl)-3-(isobutyl-{3-methyl-4-[2-(3-methyl-2,6-dioxo-3,6-dihydro-2H-pyrimidin-1-yl)-ethoxy]-benzyl}-amino)-propionic acid]

From US9447038B2 (SANOFI, priority 2012, dated 2016)
